Measurements published in PubChem BioAssay (NCI).
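Method: 48-hour compound exposure of cells in 96-well plates, five concentrations, linear interpolation of endpoints. TGI is the concentration that stops growth completely.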

Experiments:
Experiment in all cases: growth of human tumour cells (NCI), 48 h
KM12 colon = tested on: KM12 colon
MALME-3M melanoma = tested on: MALME-3M melanoma
RXF 393 renal = tested on: RXF 393 renal
SK-MEL-2 melanoma = tested on: SK-MEL-2 melanoma
OVCAR-8 ovarian = tested on: OVCAR-8 ovarian
COLO 205 colon = tested on: COLO 205 colon
IGROV1 ovarian = tested on: IGROV1 ovarian
HOP-92 NSCLC = tested on: HOP-92 NSCLC
UO-31 renal = tested on: UO-31 renal
HL-60(TB) leukemia = tested on: HL-60(TB) leukemia

SMILES | TGI (KM12 colon) | TGI (MALME-3M melanoma) | TGI (RXF 393 renal) | TGI (SK-MEL-2 melanoma) | TGI (OVCAR-8 ovarian) | TGI (COLO 205 colon) | TGI (IGROV1 ovarian) | TGI (HOP-92 NSCLC) | TGI (UO-31 renal) | TGI (HL-60(TB) leukemia)
C[C@H]1[C@H](C)N(Cc2ccccc2)P(=O)(C(O)/C=C/c2ccccc2)N1Cc1ccccc1 (stereo partly specified) | > 25 µM | 13.4 µM | 15.6 µM | 9.66 µM | > 25 µM | 17.4 µM | > 25 µM | 19.7 µM | 10.7 µM | 
c1ccc(Nc2nnc(CSc3nc(-c4ccccc4)c(-c4ccccc4)[nH]3)s2)cc1 | 44.1 µM | 34.6 µM |  | 38.4 µM | 53.8 µM | 25.6 µM | 42.2 µM | 37.7 µM | 34.7 µM | 31.4 µM
Clc1cccc(Cl)c1C=NC12CC3CC(CC(C3)C1)C2 | > 10 µM | > 10 µM | > 10 µM | > 10 µM | > 10 µM | > 10 µM | > 10 µM | > 10 µM |  | > 10 µM
COc1ccc(C2c3cc4c(cc3C(O)C3CCC(=O)N23)OCO4)cc1 (stereo unspecified) | > 100 µM | > 100 µM |  | > 100 µM | > 100 µM | > 100 µM | > 100 µM | > 100 µM | > 100 µM | > 100 µM
N#CC1(C#N)C2CCCCC23OC(=N)C1(C#N)C(c1ccco1)O3 (stereo unspecified) | > 100 µM | 48.3 µM | 59.1 µM | 45.3 µM | 73.6 µM | 31.6 µM | 40.3 µM | 29.2 µM | > 100 µM | 
COc1cc(/C=C\c2ccccn2)cc(OC)c1OC | > 100 µM | > 100 µM | > 100 µM |  | > 100 µM | > 100 µM | > 100 µM | > 100 µM | > 100 µM | > 100 µM
CC(C)c1ccccc1SC1CC(=O)CC(Sc2ccccc2C(C)C)C12O[C@H](c1ccccc1)[C@@H](c1ccccc1)O2 (stereo partly specified) | > 100 µM |  | 42 µM | > 100 µM | > 100 µM | > 100 µM | > 100 µM | > 100 µM |  | 34.8 µM
C=C1C(=O)C([Si](C)(C)C)=C2C=C(C)C3(CC3)C12C (stereo unspecified) | > 100 µM | 78.7 µM | 60.5 µM | 61.1 µM | > 100 µM | 36.4 µM | > 100 µM |  | > 100 µM | 34.8 µM
CC#COP(=O)(OCC)OCC | > 100 µM | > 100 µM |  | > 100 µM | > 100 µM | > 100 µM | > 100 µM |  | > 100 µM | 60.6 µM
O=c1c2cc(S(=O)(=O)Nc3ccccc3Cl)ccc2ncn1NS(=O)(=O)c1ccc(Br)cc1 | > 37.5 µM | > 37.5 µM |  | > 37.5 µM | > 37.5 µM | > 37.5 µM | > 37.5 µM | > 37.5 µM | > 37.5 µM | > 37.5 µM
CCOC(C[C@H](O)[C@H]1COC(=S)S1)OCC | > 100 µM | > 100 µM | > 100 µM |  | > 100 µM | > 100 µM | > 100 µM |  | > 100 µM | > 100 µM
COc1cc(NC(C)=O)c2[nH]c3c(C)cc(NC(C)=O)c(C)c3c2c1 | > 100 µM |  | > 100 µM | > 100 µM | > 100 µM | > 100 µM | > 100 µM | > 100 µM | > 100 µM | > 100 µM
Cc1occc1C(=S)Nc1ccc(Cl)c(C(=O)OCC(F)(F)F)c1 | 44.4 µM | 73.7 µM |  | 44.9 µM | 36.2 µM | 67.6 µM | 39.7 µM | 44.1 µM | 39.1 µM | 65.6 µM
CC(C)OP(=O)(OC(C)C)C(C(C)C)N(C)/C(N)=N\C1=NC(C(F)(F)F)(C(F)(F)F)N=C(C(C(F)(F)F)C(F)(F)F)O1 (stereo unspecified) | 14 µM | 22.7 µM | 4.08 µM | > 100 µM | 5.28 µM | 3.64 µM | 5.77 µM |  | 16 µM | 4.16 µM
CCOC(=O)NC(C(F)(F)F)(C(F)(F)F)P(=O)(OC(C)C)OC(C)C | > 100 µM | > 100 µM | > 100 µM | > 100 µM | > 100 µM | > 100 µM | > 100 µM |  | > 100 µM | > 100 µM
O=C(c1ccc(Cl)cc1Cl)N(C(=O)N1CCC(c2ccccc2)CC1)c1ccccc1 | > 100 µM |  |  | > 100 µM | > 100 µM | > 100 µM | > 100 µM | > 100 µM | > 100 µM | 
C[C@@]12C=CC3C/C(=N\C(N)=S)C=C(CCCC4OCCO4)[C@]3(CC1)C2 (stereo partly specified) | > 100 µM | 37.6 µM | 31.7 µM | 30.6 µM | 68.1 µM | 26 µM | 37.9 µM | > 100 µM | 38.9 µM | 
CCOC(=O)/C(N=Nc1ccc(-n2c(C)nc3ccccc3c2=O)cc1)=C(/C)O | 37.4 µM |  |  | > 100 µM | 50.5 µM | > 100 µM | > 100 µM | > 100 µM | > 100 µM | 41.2 µM
O=c1[nH]c(=O)n(C2OC(CO)C(O)C(F)C2O)cc1F (stereo unspecified) |  | > 100 µM |  | > 100 µM | > 100 µM | > 100 µM |  | > 100 µM | > 100 µM | > 100 µM
C=C(c1ccccc1)C1ON(C)CCc2cc(OC)c(OC)cc21 (stereo unspecified) | > 100 µM | > 100 µM | > 100 µM |  | > 100 µM | > 100 µM | > 100 µM | > 100 µM | > 100 µM | > 100 µM
COC(=O)[C@H](Cc1ccccc1)NC(=O)NCCN(CCNC(=O)N[C@@H](Cc1ccccc1)C(=O)OC)C(=O)N[C@@H](Cc1ccccc1)C(=O)OC | 39.5 µM | 37.8 µM | 31.9 µM | 42.5 µM | 34.6 µM | 40.9 µM |  | 70 µM | 45.5 µM | 
COc1ccc(OC)c2sc(N3C(=O)/C(=C/Cc4ccco4)N=C3c3ccccc3)nc12 | > 100 µM |  |  | 67.3 µM | > 100 µM | > 100 µM | > 100 µM | > 100 µM | 80.8 µM | 37.9 µM
CC1C2CC(CC(=O)N2)C1(C)C (stereo unspecified) | > 100 µM | > 100 µM | > 100 µM |  | > 100 µM | > 100 µM | > 100 µM | > 100 µM | > 100 µM | > 100 µM
CC1(C)C(=O)N(O)C(C)(C)N1O | > 10 µM | > 10 µM | > 10 µM | > 10 µM | > 10 µM | > 10 µM | > 10 µM | > 10 µM |  | > 10 µM
